Measured values: patent US8492371B2, “Compounds as cannabinoid receptor ligands” (priority 2009, dated 2013)
Read-outs that look alike come from different tables or passages of the source.

Tests used:
[1] = target: T1, human CB2 receptors (Homo sapiens, UniProt P34972); assay: Human CB2 radioligand binding assay ([3H]CP-55,940 competition)
T1 construct: expressed in transfected cells; host or cells: HEK293
Protocol: The CB1 and CB2 radioligand binding assays described herein are utilized to determine the selectivity of compounds of the present invention for binding to CB2 relative to CB1 receptors.
(§1) HEK293 cells stably expressing human CB2 receptors were grown until a confluent monolayer was formed. Briefly, the cells were harvested and homogenized in TE buffer (50 mM Tris-HCl, 1 mM MgCl2, and 1 mM EDTA) using a polytron for 2×10 second bursts in the presence of protease inhibitors, followed by centrifugation at 45,000×g for 20 minutes. The final membrane pellet was re-homogenized in storage buffer (50 mM Tris-HCl, 1 mM MgCl2, and 1 mM EDTA and 10% sucrose) and frozen at −78° C. until used. Saturation binding reactions were initiated by the addition of membrane preparation (protein concentration of 5 μg/well for human CB2) into wells of a deep well plate containing ([^3H]CP-55,940 (120 Ci/mmol, a nonselective CB agonist commercially available from Tocris) in assay buffer (50 mM Tris, 2.5 mM EDTA, 5 mM MgCl2, and 0.5 mg/mL fatty acid free BSA, pH 7.4). After 90 min incubation at 30° C., binding reaction was terminated by the addition of 300 μL/well of cold assay buffer followed by rapid vacuum filtration through a UniFilter-96 GF/C filter plates (pre-soaked in 1 mg/mL BSA for 2 hours). The bound activity was counted in a TopCount using Microscint-20. Saturation experiments were conducted with twelve concentrations of [^3H]CP-55,940 ranging from 0.01 to 8 nM. Competition experiments were conducted with 0.5 nM [^3H]CP-55,940 and five concentrations of displacing ligands selected from the range of 0.01 nM to 10 μM. The addition of 10 μM unlabeled CP-55,940 (Tocris, Ellisville, Mo.) was used to assess nonspecific binding.

[2] = target: T2, rat CB2 receptors (Rattus norvegicus, UniProt Q9QZN9); assay: Rat CB2 radioligand binding assay ([3H]CP-55,940 competition)
T2 construct: expressed in transfected cells; host or cells: HEK293
T2 sequence (Q9QZN9 1-360): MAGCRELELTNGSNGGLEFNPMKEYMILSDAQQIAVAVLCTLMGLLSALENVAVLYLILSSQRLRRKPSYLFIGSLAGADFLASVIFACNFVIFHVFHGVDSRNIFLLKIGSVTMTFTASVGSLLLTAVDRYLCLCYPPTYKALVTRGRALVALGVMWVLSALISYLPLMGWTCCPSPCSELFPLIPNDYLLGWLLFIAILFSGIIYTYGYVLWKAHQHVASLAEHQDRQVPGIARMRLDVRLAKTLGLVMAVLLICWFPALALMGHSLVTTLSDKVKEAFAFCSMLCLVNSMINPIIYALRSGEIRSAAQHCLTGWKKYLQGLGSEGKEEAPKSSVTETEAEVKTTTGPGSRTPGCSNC
Protocol: as §1, with “expressing rat” for “expressing human”, “of 20” for “of 5”, “for rat” for “for human”, “containing [^3H]CP-55,940” for “containing ([^3H]CP-55,940”, “After 45” for “After 90”, “[…]” for “10 μM.”

[3] = HEK293 membranes, 0.5 nM [3H]CP-55,940, read-out: human CB2 Ki

T1 sequence (P34972 whole entry): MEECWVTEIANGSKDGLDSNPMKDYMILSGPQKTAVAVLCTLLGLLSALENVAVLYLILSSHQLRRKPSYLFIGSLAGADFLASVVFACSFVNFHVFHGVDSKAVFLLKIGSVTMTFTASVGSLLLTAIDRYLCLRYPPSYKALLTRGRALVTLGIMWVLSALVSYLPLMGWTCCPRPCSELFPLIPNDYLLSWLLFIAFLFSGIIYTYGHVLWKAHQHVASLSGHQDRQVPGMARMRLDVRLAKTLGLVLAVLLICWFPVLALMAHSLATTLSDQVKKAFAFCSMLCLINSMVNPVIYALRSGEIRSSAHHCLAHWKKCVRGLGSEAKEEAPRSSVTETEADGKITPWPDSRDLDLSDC

Row | SMILES | Ki [1] [µM] | Ki [2] [µM] | Ki [1, 3] [µM]
1 | Cn1c(C(C)(C)C)c/c(=N\C(=O)c2cc(C(F)(F)F)ccc2OCC(F)(F)F)n1C[C@H]1CCCO1 [Example 21, N-{(3E)-5-tert-butyl-1-methyl-2-[(2R)-tetrahydrofuran-2-ylmethyl]-1,2-dihydro-3H-pyrazol-3-ylidene}-2-(2,2,2-trifluoroethoxy)-5-(trifluoromethyl)benzamide] | 0.063 | 0.022 | –
2 | COc1ccc(Cl)cc1C(=O)/N=c1\cc(C(C)(C)C)n(C)n1C[C@H]1CCCO1 [Example 45, N-{(3E)-5-tert-butyl-1-methyl-2-[(2R)-tetrahydrofuran-2-ylmethyl]-1,2-dihydro-3H-pyrazol-3-ylidene}-5-chloro-2-methoxybenzamide] | 0.0082 | 0.0049 | –
3 | COc1ccc(Cl)cc1C(=O)/N=c1\cc(C(C)(C)C)ccn1C[C@H]1CCCO1 [Example 61, N-[(2E)-4-tert-butyl-1-[(2R)-tetrahydrofuran-2-ylmethyl]pyridin-2(1H)-ylidene]-5-chloro-2-methoxybenzamide] | – | 0.013 | 0.103
4 | Cn1c(C(C)(C)C)c/c(=N\C(=O)c2cc(C(F)(F)F)ccc2OCCC(C)(C)F)n1C[C@H]1CCCO1 [Example 43, N-{(3E)-5-tert-butyl-1-methyl-2-[(2R)-tetrahydrofuran-2-ylmethyl]-1,2-dihydro-3H-pyrazol-3-ylidene}-2-(3-fluoro-3-methylbutoxy)-5-(trifluoromethyl)benzamide] | 0.019 | 0.01 | –
5 | COc1ccc(C(F)(F)F)cc1C(=O)/N=c1\cc(C(C)(C)C)ccn1C[C@H]1CCCO1 [Example 62, N-[(2E)-4-tert-butyl-[(2R)-tetrahydrofuran-2-ylmethyl]pyridin-2(1H)-ylidene]-2-methoxy-5-(trifluoromethyl)benzamide] | 0.02 | 0.004 | –
6 | COc1ccc(C(F)(F)F)cc1C(=O)/N=c1\cc(C2(C)CC2)n(C)n1C[C@H]1CCCO1 [Example 33, 2-methoxy-N-{(3E)-1-methyl-5-(1-methylcyclopropyl)-2-[(2R)-tetrahydrofuran-2-ylmethyl]-1,2-dihydro-3H-pyrazol-3-ylidene}-5-(trifluoromethyl)benzamide] | 0.081 | 0.014 | –
7 | Cn1c(C(C)(C)C)c/c(=N\C(=O)c2cc(OCCF)cc(C(F)(F)F)c2)n1C[C@H]1CCCO1 [Example 105, N-{(3E)-5-tert-butyl-1-methyl-2-[(2R)-tetrahydrofuran-2-ylmethyl]-1,2-dihydro-3H-pyrazol-3-ylidene}-3-(2-fluoroethoxy)-5-(trifluoromethyl)benazmide] | 0.069 | 0.01 | –
8 | Cn1c(C(C)(C)C)c/c(=N\C(=O)c2cc(C(F)(F)F)ccc2OC[C@H]2C[C@@H](O)C2)n1C[C@H]1CCCO1 [Example 16, N-{(3E)-5-tert-butyl-1-methyl-2-[(2R)-tetrahydrofuran-2-ylmethyl]-1,2-dihydro-3H-pyrazol-3-ylidene}-2-[(cis-3-hydroxycyclobutyl)methoxy]-5-(trifluoromethyl)benzamide] | 0.147 | 0.084 | –
9 | Cn1c(C(C)(C)C)c/c(=N\C(=O)c2cc(C#N)ccc2F)n1C[C@H]1CCCO1 [Example 114, N-{(3E)-5-tert-butyl-1-methyl-2-[(2R)-tetrahydrofuran-2-ylmethyl]-1,2-dihydro-3H-pyrazol-3-ylidene}-5-cyano-2-fluorobenzamide] | 0.041 | 0.02 | –
10 | COc1ccc(Cl)cc1C(=O)/N=c1\sc(C(C)(C)C(F)(F)F)nn1C[C@H]1CCCO1 [Example 9, 5-chloro-2-methoxy-N-[(2Z)-3-[(2R)-tetrahydrofuran-2-ylmethyl]-5-(2,2,2-trifluoro-1,1-dimethylethyl)-1,3,4-thiadiazol-2(3H)-ylidene]benzamide] | 0.033 | 0.0014 | –
11 | COC(=O)C12CC3CC(CC(C(=O)/N=c4\cc(C(C)(C)C)n(C)n4C[C@H]4CCCO4)(C3)C1)C2 [Example 118] | 0.042 | 0.014 | –
12 | COc1ccc(Cl)cc1C(=O)/N=c1\sc(C2(C)CC(F)(F)C2(F)F)nn1C[C@H]1CCCO1 (some centres unmarked) [Example 7, 5-chloro-2-methoxy-N-[(2Z)-5-(2,2,3,3-tetrafluoro-1-methylcyclobutyl)-3-[(2 R)-tetrahydrofuran-2-ylmethyl]-1,3,4-thiadiazol-2(3H)-ylidene]benzamide] | 0.038 | 0.0016 | –
13 | Cn1c(C(C)(C)C)c/c(=N\C(=O)c2cc(C(F)(F)F)ccc2OCC2CC(=O)C2)n1C[C@H]1CCCO1 [Example 17, N-{(3E)-5-tert-butyl-1-methyl-2-[(2R)-tetrahydrofuran-2-ylmethyl]-1,2-dihydro-3H-pyrazol-3-ylidene}-2-[(3-oxocyclobutyl)methoxy]-5-(trifluoromethyl)benzamide] | – | 0.058 | 0.23
14 | Cn1c(C(C)(C)C)c/c(=N\C(=O)c2cc(C(F)(F)F)ccc2OCCF)n1C[C@H]1CCCO1 [Example 22, N-{(3E)-5-tert-butyl-1-methyl-2-[(2R)-tetrahydrofuran-2-ylmethyl]-1,2-dihydro-3H-pyrazol-3-ylidene}-2-(2-fluoroethoxy)-5-(trifluoromethyl)benzamide] | 0.024 | 0.01 | –
15 | CCOCCCOc1ccc(C(F)(F)F)cc1C(=O)/N=c1\cc(C(C)(C)C)n(C)n1C[C@H]1CCCO1 [Example 29, N-{(3E)-5-tert-butyl-1-methyl-2-[(2R)-tetrahydrofuran-2-ylmethyl]-1,2-dihydro-3H-pyrazol-3-ylidene}-2-(3-ethoxypropoxy)-5-(trifluoromethyl)benzamide] | 0.0048 | 0.014 | –
16 | Cn1c(C(C)(C)C)c/c(=N\C(=O)c2cc(C(F)(F)F)ccc2N)n1C[C@H]1CCCO1 [Example 112, 2-amino-N-{(3E)-5-tert-butyl-1-methyl-2-[(2R)-tetrahydrofuran-2-ylmethyl]-1,2-dihydro-3H-pyrazol-3-ylidene}-5-(trifluoromethyl)benzamide] | 0.0033 | 0.0024 | –
17 | COCCOc1ccc(C(F)(F)F)cc1C(=O)/N=c1\cc(C(C)(C)C)n(C)n1C[C@H]1CCCO1 [Example 23, N-{(3E)-5-tert-butyl-1-methyl-2-[(2R)-tetrahydrofuran-2-ylmethyl]-1,2-dihydro-3H-pyrazol-3-ylidene}-2-(2-methoxyethoxy)-5-(trifluoromethyl)benzamide] | 0.03 | 0.019 | –
18 | COc1ccc(C#N)cc1C(=O)/N=c1\cc(C(C)(C)C)n(C)n1C[C@H]1CCCO1 [Example 48] | – | 0.029 | 0.143
19 | COc1ccc(Cl)cc1C(=O)/N=c1\sc(C2(C(F)(F)F)CCC2)nn1C[C@H]1CCCO1 [Example 8, 5-chloro-2-methoxy-N-[(2Z)-3-[(2R)-tetrahydrofuran-2-ylmethyl]-5-[1-(trifluoromethyl)cyclobutyl]-1,3,4-thiadiazol-2(3H)-ylidene]benzamide] | – | 0.0008 | –
20 | COc1ccc(Cl)cc1C(=O)/N=c1\ccc(C)cn1CC1CCCO1 (centres unmarked) [Example 10, 5-chloro-2-methoxy-N-[(2E)-5-methyl-1-(tetrahydrofuran-2-ylmethyl)pyridin-2(1 H)-ylidene]benzamide] | – | – | 0.36
